From publication PMC3305890, “Synthesis and pharmacological characterization of potent, selective, and orally bioavailable isoindoline class dipeptidyl peptidase IV inhibitors” (Organic and Medicinal Chemistry Letters, 2011)

Assays:
CYP2B = CYP2B enzyme induction in rat hepatocytes (7-pentoxyresorufin O-dealkylation); assay type: in vitro ADME; settings: rat hepatocytes, 1, 10, 50 μM, 2 days
Protocol: (§1) Enzyme induction was evaluated as follows: Hepatocytes isolated from male SD rats were maintained in culture for 1 day before treatment with the test compound or P-450 inducers. The cells were treated with the test compound (1, 10, 50 μM), β-naphthoflavone (10 μM, CYP1A inducer), phenobarbital (50 μM, CYP2B inducer), dexamethasone (10 μM, CYP3A inducer), or vehicle (0.1% DMSO final volume; used as negative control) for 2 days.
(§2) Induction of CYP1A, CYP2B, and CYP3A enzymes was determined based on measurements of 7-ethoxyresorufin O-dealkylation, 7-pentoxyresorufin O-dealkylation, and testosterone 6β-hydroxylation, respectively. Assays were started by the addition of Krebs-Henseleit buffer containing 8 μM 7-ethoxyresorufin, 10 μM 7-pentoxyresorufin, or 250 μM testosterone at a volume of 100 μL per well. After incubation at 37°C for 30 min, aliquots were removed and analyzed by fluorometry (an excitation wavelength of 538 nm and an emission wavelength of 590 nm) or LC/MS/MS to determine the quantities of metabolites formed. Any test compound causing a dose-dependent change equal to or greater than 10% of the positive control (see formula below) was considered an enzyme inducer.
(§3) % positive control=(activity of test - compound treated cells - activity of negative control)/(activity of positive control - activity of negative control)×100

Human DPP-8 = Human DPP-8 (Homo sapiens, UniProt Q6V1X1); test: In vitro assay for inhibition of DPP-8
Protocol: (§4) Thus, isoindolines were synthesized as shown in Figure 1 and evaluated in vitro for their ability to inhibit human recombinant DPP-IV and were also screened for their selectivity over DPP-8/9 by a fluorescence assay using glycyl-proline 7-amino-4-methylcoumarin (H-Gly-Pro-AMC).
(§5) Human DPP-8 and DPP-9 were expressed in baculovirus-infected Sf9 insect cells and purified using His-tagged protein purification resins. Inhibition of DPP-8 and -9 activities was determined as described above. 10 μL of appropriately diluted aqueous solutions of the test compounds was added to 96-well microtiter plates, followed by the addition of 50 μL of 1.0 mM H-Gly-Pro-AMC in buffer solution (50 mM HEPES, 0.1 mg/mL BSA, pH 8.0). The reaction was initiated by the addition of 40 μL of the enzyme solution diluted in the assay buffer.

Human DPP-9 = Human DPP-9 (Homo sapiens, UniProt Q86TI2); test: In vitro assay for inhibition of DPP-9
Protocol: as §4, §5

Human recombinant DPP-IV = Human recombinant DPP-IV (Homo sapiens, UniProt P27487); test: In vitro assay for DPP-IV inhibition (H-Gly-Pro-AMC fluorescence)
Protocol: Inhibition of DPP-IV activity was determined by measuring the rate of hydrolysis of a surrogate substrate, H-Gly-Pro-7-amino-4-methylcoumarin (H-Gly-Pro-AMC). Human recombinant DPP-IV was purchased from R&D Systems, Minneapolis, MN. 10 μL of appropriately diluted solutions of the test compounds in water was added to 96-well microtiter plates, followed by the addition of 40 μL of DPP-IV diluted in assay buffer (25 mM HEPES, 140 mM NaC1, 0.1 mg/mL BSA, pH 7.8). After a 30-min preincubation at room temperature, the reaction was initiated by the addition of 50 μL of the assay buffer containing 0.2 mM H-Gly-Pro-AMC.

CYP1A = CYP1A enzyme induction in rat hepatocytes (7-ethoxyresorufin O-dealkylation); assay type: in vitro ADME; settings: rat hepatocytes, 1, 10, 50 μM, 2 days
Protocol: as §1, §2, §3

Sequence of Human DPP-9 (Q86TI2 whole entry): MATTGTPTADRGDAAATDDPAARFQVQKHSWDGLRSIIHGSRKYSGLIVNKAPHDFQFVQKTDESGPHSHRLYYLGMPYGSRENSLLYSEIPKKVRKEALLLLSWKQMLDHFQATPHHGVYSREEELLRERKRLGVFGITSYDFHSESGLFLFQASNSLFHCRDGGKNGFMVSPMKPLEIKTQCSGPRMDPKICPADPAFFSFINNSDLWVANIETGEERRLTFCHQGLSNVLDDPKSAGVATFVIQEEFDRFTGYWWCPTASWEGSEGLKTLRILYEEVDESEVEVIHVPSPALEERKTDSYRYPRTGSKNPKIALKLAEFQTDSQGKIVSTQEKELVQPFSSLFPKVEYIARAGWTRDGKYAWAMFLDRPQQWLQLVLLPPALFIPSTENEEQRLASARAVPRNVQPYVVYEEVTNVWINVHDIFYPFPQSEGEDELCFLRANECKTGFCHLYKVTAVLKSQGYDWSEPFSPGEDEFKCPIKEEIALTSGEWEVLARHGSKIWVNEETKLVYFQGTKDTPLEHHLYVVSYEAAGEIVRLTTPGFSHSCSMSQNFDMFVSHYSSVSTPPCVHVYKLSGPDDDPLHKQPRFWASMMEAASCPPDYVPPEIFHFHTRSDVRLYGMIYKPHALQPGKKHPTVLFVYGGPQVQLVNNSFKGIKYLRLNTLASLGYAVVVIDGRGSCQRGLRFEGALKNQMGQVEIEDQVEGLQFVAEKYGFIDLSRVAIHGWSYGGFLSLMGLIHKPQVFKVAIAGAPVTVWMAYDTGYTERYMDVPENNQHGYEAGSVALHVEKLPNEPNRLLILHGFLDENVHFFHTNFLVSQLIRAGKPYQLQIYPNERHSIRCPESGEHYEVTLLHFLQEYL
Sequence of Human DPP-8 (Q6V1X1 whole entry): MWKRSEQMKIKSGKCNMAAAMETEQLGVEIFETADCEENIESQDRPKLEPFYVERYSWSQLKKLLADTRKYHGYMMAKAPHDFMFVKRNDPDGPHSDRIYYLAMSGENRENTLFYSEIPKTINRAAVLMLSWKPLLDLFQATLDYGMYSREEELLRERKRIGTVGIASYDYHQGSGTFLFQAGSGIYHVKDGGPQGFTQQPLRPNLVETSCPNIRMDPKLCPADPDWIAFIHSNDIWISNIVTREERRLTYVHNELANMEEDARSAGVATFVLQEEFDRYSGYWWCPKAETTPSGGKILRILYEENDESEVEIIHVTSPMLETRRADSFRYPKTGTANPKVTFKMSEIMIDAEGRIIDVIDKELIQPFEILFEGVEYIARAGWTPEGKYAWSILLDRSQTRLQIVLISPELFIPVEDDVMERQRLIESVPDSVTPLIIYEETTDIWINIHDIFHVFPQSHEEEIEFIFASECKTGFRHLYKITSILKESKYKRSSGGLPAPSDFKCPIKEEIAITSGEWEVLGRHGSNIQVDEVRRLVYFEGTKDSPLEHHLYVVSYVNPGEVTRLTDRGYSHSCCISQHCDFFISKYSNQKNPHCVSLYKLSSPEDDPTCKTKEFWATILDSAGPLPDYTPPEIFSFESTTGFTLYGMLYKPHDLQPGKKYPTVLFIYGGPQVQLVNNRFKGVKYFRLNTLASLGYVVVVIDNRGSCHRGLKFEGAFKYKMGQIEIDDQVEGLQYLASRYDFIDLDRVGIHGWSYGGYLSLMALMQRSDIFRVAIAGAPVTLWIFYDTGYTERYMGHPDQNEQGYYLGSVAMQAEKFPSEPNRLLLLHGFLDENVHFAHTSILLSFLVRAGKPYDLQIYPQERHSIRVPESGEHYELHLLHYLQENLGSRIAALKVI
Sequence of Human recombinant DPP-IV (P27487 whole entry): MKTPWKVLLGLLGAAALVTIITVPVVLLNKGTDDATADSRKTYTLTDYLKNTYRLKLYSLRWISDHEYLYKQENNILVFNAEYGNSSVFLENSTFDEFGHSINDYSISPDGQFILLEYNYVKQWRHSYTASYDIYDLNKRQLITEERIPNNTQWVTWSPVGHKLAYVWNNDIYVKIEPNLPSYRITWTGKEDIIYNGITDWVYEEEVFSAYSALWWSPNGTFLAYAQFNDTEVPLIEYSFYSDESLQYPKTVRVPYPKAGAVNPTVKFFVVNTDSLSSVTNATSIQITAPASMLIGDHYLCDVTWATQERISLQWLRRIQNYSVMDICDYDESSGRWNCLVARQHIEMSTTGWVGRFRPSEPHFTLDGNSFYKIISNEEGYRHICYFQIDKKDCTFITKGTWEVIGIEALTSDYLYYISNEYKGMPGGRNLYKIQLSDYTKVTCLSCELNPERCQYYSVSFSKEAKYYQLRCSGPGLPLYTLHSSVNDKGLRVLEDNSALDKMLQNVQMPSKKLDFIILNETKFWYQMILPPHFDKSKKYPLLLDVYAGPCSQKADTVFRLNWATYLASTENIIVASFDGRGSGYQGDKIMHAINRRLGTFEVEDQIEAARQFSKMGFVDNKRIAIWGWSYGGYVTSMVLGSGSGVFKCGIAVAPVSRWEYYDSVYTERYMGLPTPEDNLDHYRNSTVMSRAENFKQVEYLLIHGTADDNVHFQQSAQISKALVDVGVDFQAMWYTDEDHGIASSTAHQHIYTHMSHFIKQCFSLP

For `CC(C)(CC(=O)N1Cc2ccc(Br)cc2C1)NCC(=O)N1CCC[C@H]1C#N` [Compound 4d, (S)-1-(2-(4-(5-Bromoisoindolin-2-yl)-2-methyl-4-oxobutan-2-ylamino)acetyl)pyrrolidine-2-carbonitrile], the “Enzyme induction (rat) CYP2B” value (CYP2B) was “+ (Any test compound causing a dose-dependent change equal to or greater than 10% of the positive control (see formula below) was considered an enzyme inducer)”, the IC50 (Human DPP-8) was 36 µM and the IC50 (Human DPP-9) was over 100 µM. It also gave an IC50 (Human recombinant DPP-IV) of 0.003 µM.
With `CC(C)(CC(=O)N1Cc2ccc(Cl)cc2C1)NCC(=O)N1CCC[C@H]1C#N` [Compound 4e, (S)-1-(2-(4-(5-Chloroisoindolin-2-yl)-2-methyl-4-oxobutan-2-ylamino)acetyl)pyrrolidine-2-carbonitrile] the “Enzyme induction (rat) CYP2B” value (CYP2B) was “+ (Any test compound causing a dose-dependent change equal to or greater than 10% of the positive control (see formula below) was considered an enzyme inducer)”, the IC50 (Human DPP-8) was 44 µM and the IC50 (Human DPP-9) was over 100 µM. It also gave an IC50 (Human recombinant DPP-IV) of 0.0048 µM.
For `CC(C)(CC(=O)N1Cc2ccc(C(F)(F)F)cc2C1)NCC(=O)N1CCC[C@H]1C#N` [Compound 4f, (S)-1-(2-(2-Methyl-4-oxo-4-(5-(trifluoromethyl)isoindolin-2-yl)butan-2-ylamino)acetyl)pyrrolidine-2-carbonitrile], the “Enzyme induction (rat) CYP1A” value (CYP1A) was “+ (Any test compound causing a dose-dependent change equal to or greater than 10% of the positive control (see formula below) was considered an enzyme inducer)”, the “Enzyme induction (rat) CYP2B” value (CYP2B) was “+ (Any test compound causing a dose-dependent change equal to or greater than 10% of the positive control (see formula below) was considered an enzyme inducer)” and the IC50 (Human DPP-8) was over 100 µM. The IC50 (Human DPP-9) was over 100 µM and the IC50 (Human recombinant DPP-IV) was 0.0054 µM.
In the case of `CC(C)(CC(=O)N1Cc2cccc(F)c2C1)NCC(=O)N1CCC[C@H]1C#N` [Compound 4g, (S)-1-(2-(4-(4-Fluoroisoindolin-2-yl)-2-methyl-4-oxobutan-2-ylamino)acetyl)pyrrolidine-2-carbonitrile], the “Enzyme induction (rat) CYP2B” value (CYP2B) is reported as “+ (Any test compound causing a dose-dependent change equal to or greater than 10% of the positive control (see formula below) was considered an enzyme inducer)”, the IC50 (Human DPP-8) is reported as over 100 µM and the IC50 (Human DPP-9) is reported as over 100 µM. It also gave an IC50 (Human recombinant DPP-IV) of 0.0026 µM.
With `Cc1cccc2c1CN(C(=O)CC(C)(C)NCC(=O)N1CCC[C@H]1C#N)C2` [Compound 4h, (S)-1-(2-(2-Methyl-4-(4-methylisoindolin-2-yl)-4-oxobutan-2-ylamino)acetyl)pyrrolidine-2-carbonitrile] the “Enzyme induction (rat) CYP2B” value (CYP2B) was “+ (Any test compound causing a dose-dependent change equal to or greater than 10% of the positive control (see formula below) was considered an enzyme inducer)”, the IC50 (Human DPP-8) was over 100 µM and the IC50 (Human DPP-9) was over 100 µM. The IC50 (Human recombinant DPP-IV) was 0.004 µM.
`CC(C)(CC(=O)N1Cc2c(Cl)ccc(Cl)c2C1)NCC(=O)N1CCC[C@H]1C#N` [Compound 4i, (S)-1-(2-(4-(4,7-Dichloroisoindolin-2-yl)-2-methyl-4-oxobutan-2-ylamino)acetyl)pyrrolidine-2-carbonitrile] was tested, and the “Enzyme induction (rat) CYP1A” value (CYP1A) was “+ (Any test compound causing a dose-dependent change equal to or greater than 10% of the positive control (see formula below) was considered an enzyme inducer)”, the IC50 (Human DPP-8) was over 100 µM and the IC50 (Human DPP-9) was over 100 µM. It also gave an IC50 (Human recombinant DPP-IV) of 0.0026 µM.
`COc1cc(C)cc2c1CN(C(=O)CC(C)(C)NCC(=O)N1CCC[C@H]1C#N)C2` [Compound 4k, (S)-1-(2-(4-(4-Methoxy-6-methylisoindolin-2-yl)-2-methyl-4-oxobutan-2-ylamino)acetyl)pyrrolidine-2-carbonitrile] was tested, and the “Enzyme induction (rat) CYP2B” value (CYP2B) was “+ (Any test compound causing a dose-dependent change equal to or greater than 10% of the positive control (see formula below) was considered an enzyme inducer)”, the IC50 (Human DPP-8) was over 100 µM and the IC50 (Human DPP-9) was over 100 µM. It also gave an IC50 (Human recombinant DPP-IV) of 0.016 µM.
